Results on 13 compounds are retold here after patent publication US8906914B2, “Ethylene diamine modulators of fatty acid hydrolase” (priority 2009, dated 2014).

For one test, the target named is T1, Rat FAAH-1 (Rattus norvegicus, UniProt P97612).
T1 construct: expressed in transfected cells
T1 sequence (P97612 1-579): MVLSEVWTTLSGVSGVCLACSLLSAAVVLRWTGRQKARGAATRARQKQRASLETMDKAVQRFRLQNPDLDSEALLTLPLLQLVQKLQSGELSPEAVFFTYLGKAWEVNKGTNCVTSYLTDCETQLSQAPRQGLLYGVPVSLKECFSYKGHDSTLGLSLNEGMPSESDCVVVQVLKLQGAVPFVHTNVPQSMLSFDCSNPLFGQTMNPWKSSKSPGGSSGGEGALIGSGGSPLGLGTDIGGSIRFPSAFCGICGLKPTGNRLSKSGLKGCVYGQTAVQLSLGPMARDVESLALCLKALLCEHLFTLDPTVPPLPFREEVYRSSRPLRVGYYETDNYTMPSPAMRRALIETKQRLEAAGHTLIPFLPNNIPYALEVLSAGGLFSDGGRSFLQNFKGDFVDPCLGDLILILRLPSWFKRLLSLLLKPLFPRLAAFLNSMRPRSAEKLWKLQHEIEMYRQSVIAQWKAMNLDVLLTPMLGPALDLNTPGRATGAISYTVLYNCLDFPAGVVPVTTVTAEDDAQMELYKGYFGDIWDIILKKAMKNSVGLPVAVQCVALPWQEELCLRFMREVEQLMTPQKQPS
Kind of test: Rat FAAH-1 assay (Assay Method 2), 3H-anandamide hydrolysis in cell homogenate. It counts as biochemical. The method, then: A. Transfection of Cells with Rat FAAH-1
(§1) A 10-cm tissue culture dish with a confluent monolayer of SK-N-MC cells was split 2 days (d) prior to transfection. Using sterile technique, the media was removed and the cells were detached from the dish by the addition of trypsin. One fifth of the cells were then placed onto a new 10-cm dish. Cells were grown in a 37° C. incubator with 5% CO2 in Minimal Essential Media Eagle with 10% Fetal Bovine Serum. After 2 d, cells were approximately 80% confluent. These cells were removed from the dish with trypsin and pelleted in a clinical centrifuge. The pellet was re-suspended in 400 μL complete media and transferred to an electroporation cuvette with a 0.4 cm gap between the electrodes. Supercoiled rat FAAH cDNA (1 μg) was added to the cells and mixed. The voltage for the electroporation was set at 0.25 kV, and the capacitance was set at 960 μF. After electroporation, the cells were diluted into complete media (10 mL) and plated onto four 10-cm dishes. Because of the variability in the efficiency of electroporation, four different concentrations of cells were plated. The ratios used were 1:20, 1:10, and 1:5, with the remainder of the cells being added to the fourth dish. The cells were allowed to recover for 24 h before adding the selection media (complete media with 600 μg/mL G418). After 10 d, dishes were analyzed for surviving colonies of cells. Dishes with well-isolated colonies were used. Cells from individual colonies were isolated and tested.
(§2) The assay mixture consisted of 50 μL of the cell homogenate, 10 μL of the test compound, and 40 μL of anandamide [1-^3H-ethanolamine] (^3H-AEA, Perkin-Elmer, 10.3 Ci/mmol), which was added last, for a final tracer concentration of 80 nM. The reaction mixture was incubated at rt for 1 h. During the incubation, 96-well Multiscreen filter plates (catalog number MAFCNOB50; Millipore, Bedford, Mass., USA) were loaded with 25 μL of activated charcoal (Multiscreen column loader, catalog number MACL09625, Millipore) and washed once with 100 μL of MeOH. Also during the incubation, 96-well DYNEX MicroLite plates (catalog number NL510410) were loaded with 100 μL of MicroScint40 (catalog number 6013641, Packard Bioscience, Meriden, Conn., USA). After the 1 h incubation, 60 μL of the reaction mixture were transferred to the charcoal plates, which were then assembled on top of the DYNEX plates using Centrifuge Alignment Frames (catalog number MACF09604, Millipore). The unbound labeled ethanolamine was centrifuged through to the bottom plate (5 min at 2000 rpm), which was preloaded with the scintillant, as described above. The plates were sealed and left at rt for 1 h before counting on a Hewlett Packard TopCount.
(§3) Where activity is shown as greater than (>) a particular value, the value is the solubility limit of the compound in the assay medium or the highest concentration tested in the assay.

Another test concerns the target T2, FAAH (Homo sapiens, UniProt O00519).
T2 sequence (O00519 1-579): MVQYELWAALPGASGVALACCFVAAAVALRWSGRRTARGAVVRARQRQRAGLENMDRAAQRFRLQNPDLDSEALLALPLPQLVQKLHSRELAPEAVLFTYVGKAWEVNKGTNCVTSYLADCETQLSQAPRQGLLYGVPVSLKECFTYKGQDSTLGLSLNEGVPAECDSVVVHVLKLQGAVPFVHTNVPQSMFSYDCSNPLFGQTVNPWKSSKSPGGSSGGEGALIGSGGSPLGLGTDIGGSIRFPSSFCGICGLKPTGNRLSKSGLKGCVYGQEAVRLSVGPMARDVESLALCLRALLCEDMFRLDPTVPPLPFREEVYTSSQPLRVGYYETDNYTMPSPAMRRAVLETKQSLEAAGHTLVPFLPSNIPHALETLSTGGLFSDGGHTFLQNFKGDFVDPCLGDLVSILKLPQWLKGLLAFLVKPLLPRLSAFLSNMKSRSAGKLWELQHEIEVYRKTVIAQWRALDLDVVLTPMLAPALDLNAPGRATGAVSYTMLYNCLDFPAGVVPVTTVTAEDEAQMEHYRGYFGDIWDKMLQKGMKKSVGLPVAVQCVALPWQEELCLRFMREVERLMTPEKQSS
Put plainly: Human FAAH assay (Assay Method 1), 3H-anandamide hydrolysis in cell homogenate. It counts as biochemical. More on the design: expressed in transfected cells; alternatively T84 frozen cell pellets (endogenous FAAH). The method, then: A. Transfection of Cells with Human FAAH
as §1, with “Supercoiled human” for “Supercoiled rat”
as §2, with “[1-3H-ethanolamine]” for “[1-^3H-ethanolamine]”
as §3

Each structure is given as a SMILES string. pIC50: −log10 of the molar value. Structures can show the parent of a compound that is named as a salt.

One may read the pIC50 as the negative decadic logarithm of the IC50, by convention in mol/L. A higher pIC50 goes with a small IC50. Consider `N[C@@H](CNc1cc(-c2ccc(SC(F)(F)F)cc2)ncn1)c1ccccc1` [Example 11, (1R)-1-Phenyl-N^2-(6-{4-[(trifluoromethyl)sulfanyl]phenyl}pyrimidin-4-yl)ethane-1,2-diamine hydrochloride acid salt], for which the values for the pIC50 at Rat FAAH-1 and against FAAH were 6.77 and 7.72, respectively.

For `N[C@@H](CNc1cc(-c2ccc(C(F)(F)F)c(Cl)c2)ncn1)c1ccc(F)cc1` [Example 27, (1R)—N^2-[6-(3-Chloro-4-trifluoromethyl-phenyl)-pyrimidin-4-yl]-1-(4-fluoro-phenyl)-ethane-1,2-diamine], the values for the pIC50 on Rat FAAH-1 and at FAAH were 7.22 and 7.48, respectively.

Take `N[C@@H](CNc1cc(-c2ccc(C(F)(F)F)c(Cl)c2)ncn1)c1ccc(SC(F)(F)F)cc1` [Example 61, (1R)—N^2-[6-(3-Chloro-4-trifluoromethyl-phenyl)-pyrimidin-4-yl]-1-(4-trifluoromethylsulfanyl-phenyl)-ethane-1,2-diamine]: the results for the negative logarithm of the IC50 (pIC50) on Rat FAAH-1 and at FAAH were 6.89 and 6.74, respectively.

In the case of `N[C@@H](CNc1cc(-c2ccc(C(F)(F)F)c(Cl)c2)ncn1)c1ccc(Cl)c(Cl)c1` [Example 43, (1R)—N^2-[6-(3-Chloro-4-trifluoromethyl-phenyl)-pyrimidin-4-yl]-1-(3,4-dichloro-phenyl)-ethane-1,2-diamine], the pIC50 at Rat FAAH-1 was 7.02; at FAAH, 6.70.

As for `N[C@@H](CNc1cc(-c2ccc(OC(F)(F)F)cc2)ncn1)c1ccccc1` [Example 6, (1R)-1-Phenyl-N^2-{6-[4-(trifluoromethoxy)phenyl]pyrimidin-4-yl}ethane-1,2-diamine hydrochloride acid salt], the pIC50 against Rat FAAH-1 is 6.06; on FAAH it was 7.09.

Take `N[C@@H](CNc1cc(-c2ccc(OC(F)(F)F)c(Cl)c2)ncn1)c1ccccc1` [Example 7, (1R)—N^2-{6-[3-Chloro-4-(trifluoromethoxy)phenyl]pyrimidin-4-yl}-1-phenylethane-1,2-diamine hydrochloride acid salt]: the pIC50 on Rat FAAH-1 was 6.92; against FAAH it was 7.28.

In the case of `N[C@@H](CNc1cc(-c2ccc(Cl)c(Cl)c2)ncn1)c1ccccc1` [Example 16, (1R)—N^2-[6-(3,4-Dichlorophenyl)pyrimidin-4-yl]-1-phenylethane-1,2-diamine hydrochloride acid salt], the pIC50 on Rat FAAH-1 is 6.30; on FAAH, 7.05.

As to `N[C@@H](CNc1cc(-c2ccc3c(C(F)(F)F)noc3c2)ncn1)c1ccccc1` [Example 13, (1R)-1-Phenyl-N^2-[6-(3-(trifluoromethyl)-benzo[d]isoxazol-6-yl)pyrimidin-4-yl]-ethane-1,2-diamine hydrochloride acid salt], the pIC50 is 7.15 against Rat FAAH-1 and 7.36 against FAAH.

In the case of `N[C@@H](CNc1cc(-c2ccc(C(F)(F)F)cc2)ncn1)c1ccccc1` [Example 5, (1R)-1-Phenyl-N^2-{6-[4-(trifluoromethyl)phenyl]pyrimidin-4-yl}ethane-1,2-diamine hydrochloride acid salt], the figures for the pIC50 against Rat FAAH-1 and at FAAH were 6.00 and 6.89, respectively.

`CC(C)(C)OC(=O)N[C@@H](CNc1cc(-c2ccc(C(F)(F)F)c(Cl)c2)ncn1)c1ccccc1` [Example 2, (1R)-{2-[6-(3-Chloro-4-trifluoromethyl-phenyl)-pyrimidin-4-ylamino]-1-phenyl-ethyl}-carbamic acid tert-butyl ester]: the pIC50 against Rat FAAH-1 was 5.10; against FAAH, 6.48.

For the compound `N[C@@H](CNc1cc(-c2ccc(C(F)(F)F)c(Cl)c2)ncn1)c1ccc2ccccc2c1` [Example 51, (1R)—N^2-[6-(3-Chloro-4-trifluoromethyl-phenyl)-pyrimidin-4-yl]-1-naphthalen-2-yl-ethane-1,2-diamine], the pIC50 on Rat FAAH-1 is 7.40; at FAAH, 6.90.

In the case of `N[C@@H](CNc1cc(-c2ccc3c(C(F)(F)F)noc3c2)ncn1)c1ccc(F)cc1` [Example 65, (1R)—N^2-1-(4-Fluoro-phenyl)-[6-(3-trifluoromethyl-benzo[d]isoxazol-6-yl)-pyrimidin-4-yl]ethane-1,2-diamine, trifluoroacetic acid salt], the negative logarithm of the IC50 (pIC50) is 7.24 against Rat FAAH-1 and 7.35 against FAAH.

Consider `N[C@H](CNc1cc(-c2ccc(C(F)(F)F)c(Cl)c2)ncn1)c1ccc(F)c(F)c1` [Example 40, (1S)—N^2-[6-(3-Chloro-4-trifluoromethyl-phenyl)-pyrimidin-4-yl]-1-(3,4-difluoro-phenyl)-ethane-1,2-diamine, trifluoroacetic acid salt], for which the pIC50 is 5.30 on Rat FAAH-1 and 6.00 against FAAH.
